Legend:
[1] = target: T1, ABL1(Q252H)-phosphorylated (Homo sapiens, UniProt P00519, Q252H); assay: KINOMEscan; assay type: binding; conditions: read-out: Percent Control
T1 construct: purchased Eurofins DiscoverX KINOMEscan (scanMAX 468)

PKMYT1 = target: T2, PKMYT1 (Homo sapiens, UniProt Q99640); assay: KINOMEscan; assay type: binding; conditions: read-out: Percent Control
T2 construct: purchased Eurofins DiscoverX KINOMEscan (scanMAX 468)

S6K1 = target: T3, S6K1 (Homo sapiens, UniProt P23443); assay: KINOMEscan; assay type: binding; conditions: read-out: Percent Control
T3 construct: purchased Eurofins DiscoverX KINOMEscan (scanMAX 468)

PFTAIRE2 = target: T4, PFTAIRE2 (Homo sapiens, UniProt Q96Q40); assay: KINOMEscan; assay type: binding; conditions: read-out: Percent Control
T4 construct: purchased Eurofins DiscoverX KINOMEscan (scanMAX 468)

KIT(V559D,T670I) = target: T5, KIT(V559D,T670I) (Homo sapiens, UniProt P10721, T670I/V559D); assay: KINOMEscan; assay type: binding; conditions: read-out: Percent Control
T5 construct: purchased Eurofins DiscoverX KINOMEscan (scanMAX 468)
T5 sequence (P10721 26-976 V559D/T670I): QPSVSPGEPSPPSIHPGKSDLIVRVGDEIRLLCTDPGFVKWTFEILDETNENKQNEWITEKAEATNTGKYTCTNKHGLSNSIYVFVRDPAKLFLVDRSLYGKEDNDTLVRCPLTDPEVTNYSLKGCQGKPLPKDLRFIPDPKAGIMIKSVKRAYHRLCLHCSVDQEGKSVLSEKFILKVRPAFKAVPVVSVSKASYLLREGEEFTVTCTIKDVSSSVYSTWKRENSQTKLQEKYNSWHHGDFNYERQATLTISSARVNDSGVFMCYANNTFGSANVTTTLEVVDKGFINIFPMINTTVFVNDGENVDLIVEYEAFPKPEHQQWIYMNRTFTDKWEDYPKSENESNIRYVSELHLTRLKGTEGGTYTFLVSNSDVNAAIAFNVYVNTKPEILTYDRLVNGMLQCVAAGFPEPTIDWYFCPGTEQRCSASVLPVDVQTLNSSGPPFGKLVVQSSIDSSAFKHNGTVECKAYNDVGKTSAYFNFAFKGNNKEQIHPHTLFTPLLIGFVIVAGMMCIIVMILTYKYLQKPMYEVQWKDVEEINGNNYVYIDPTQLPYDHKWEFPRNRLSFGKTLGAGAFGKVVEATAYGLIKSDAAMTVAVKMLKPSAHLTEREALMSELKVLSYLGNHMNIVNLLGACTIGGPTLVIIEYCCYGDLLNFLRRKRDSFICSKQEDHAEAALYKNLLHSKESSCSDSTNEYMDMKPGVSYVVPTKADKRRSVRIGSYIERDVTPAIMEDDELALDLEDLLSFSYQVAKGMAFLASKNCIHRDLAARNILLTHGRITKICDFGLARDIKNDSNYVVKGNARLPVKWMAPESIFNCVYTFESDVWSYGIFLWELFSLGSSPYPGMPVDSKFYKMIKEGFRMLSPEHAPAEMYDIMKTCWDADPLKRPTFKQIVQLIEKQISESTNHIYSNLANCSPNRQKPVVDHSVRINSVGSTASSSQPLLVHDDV

Caco2 = tested on: Caco2; design: method as in ref 14 (a number printed in a supplementary file, which may have a reference list of its own: not looked up in the article's list); conditions: DB18[a], footnote not given; read-out: Cytotoxic studies IC50 Caco2; cited from earlier work
NLK = target: T6, NLK (Homo sapiens, UniProt Q9UBE8); assay: KINOMEscan; assay type: binding; conditions: read-out: Percent Control
T6 construct: purchased Eurofins DiscoverX KINOMEscan (scanMAX 468)

DDR2 = target: T7, DDR2 (Homo sapiens, UniProt Q16832); assay: KINOMEscan; assay type: binding; conditions: read-out: Percent Control
T7 construct: purchased Eurofins DiscoverX KINOMEscan (scanMAX 468)

PRKD1 = target: T8, PRKD1 (Homo sapiens, UniProt Q15139); assay: KINOMEscan; assay type: binding; conditions: read-out: Percent Control
T8 construct: purchased Eurofins DiscoverX KINOMEscan (scanMAX 468)
T8 sequence (Q15139 whole entry): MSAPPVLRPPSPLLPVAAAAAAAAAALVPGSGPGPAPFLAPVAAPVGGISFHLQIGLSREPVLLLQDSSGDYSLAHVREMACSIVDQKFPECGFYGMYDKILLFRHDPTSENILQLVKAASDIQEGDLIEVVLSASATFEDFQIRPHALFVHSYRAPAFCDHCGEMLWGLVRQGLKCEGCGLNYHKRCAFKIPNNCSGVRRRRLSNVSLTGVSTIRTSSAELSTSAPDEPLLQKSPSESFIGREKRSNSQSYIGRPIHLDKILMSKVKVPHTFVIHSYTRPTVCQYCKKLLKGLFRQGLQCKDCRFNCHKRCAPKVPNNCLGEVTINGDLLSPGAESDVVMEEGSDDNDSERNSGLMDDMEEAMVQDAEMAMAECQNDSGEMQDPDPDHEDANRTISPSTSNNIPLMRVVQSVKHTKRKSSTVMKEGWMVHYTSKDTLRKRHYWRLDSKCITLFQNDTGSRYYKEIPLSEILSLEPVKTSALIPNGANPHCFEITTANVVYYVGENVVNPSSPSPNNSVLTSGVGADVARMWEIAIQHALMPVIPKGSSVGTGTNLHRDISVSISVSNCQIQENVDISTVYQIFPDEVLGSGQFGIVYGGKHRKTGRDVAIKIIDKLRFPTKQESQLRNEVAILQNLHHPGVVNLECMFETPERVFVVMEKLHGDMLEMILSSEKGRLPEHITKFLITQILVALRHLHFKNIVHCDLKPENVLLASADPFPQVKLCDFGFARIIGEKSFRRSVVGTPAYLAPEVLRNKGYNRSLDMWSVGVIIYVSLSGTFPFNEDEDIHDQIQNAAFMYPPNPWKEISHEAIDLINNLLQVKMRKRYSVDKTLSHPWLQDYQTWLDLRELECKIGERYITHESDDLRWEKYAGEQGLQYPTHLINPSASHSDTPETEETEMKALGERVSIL

CHEK1 = target: T9, CHEK1 (Homo sapiens, UniProt O14757); assay: KINOMEscan; assay type: binding; conditions: read-out: Percent Control
T9 construct: purchased Eurofins DiscoverX KINOMEscan (scanMAX 468)

PIK3CA(E545K) = target: T10, PIK3CA(E545K) (Homo sapiens, UniProt P42336, E545K); assay: KINOMEscan; assay type: binding; conditions: read-out: Percent Control
T10 construct: purchased Eurofins DiscoverX KINOMEscan (scanMAX 468)

ADCK3 = target: T11, ADCK3 (Homo sapiens, UniProt Q8NI60); assay: KINOMEscan; assay type: binding; conditions: read-out: Percent Control
T11 construct: purchased Eurofins DiscoverX KINOMEscan (scanMAX 468)

[2] = target: T12, RSK1(Kin.Dom.1-N-terminal) (Homo sapiens, UniProt Q15418); assay: KINOMEscan; assay type: binding; conditions: read-out: Percent Control
T12 construct: RSK1(Kin.Dom.1-N-terminal); purchased Eurofins DiscoverX KINOMEscan (scanMAX 468)

MAP3K4 = target: T13, MAP3K4 (Homo sapiens, UniProt Q9Y6R4); assay: KINOMEscan; assay type: binding; conditions: read-out: Percent Control
T13 construct: purchased Eurofins DiscoverX KINOMEscan (scanMAX 468)

YSK4 = target: T14, YSK4 (Homo sapiens, UniProt Q56UN5); assay: KINOMEscan; assay type: binding; conditions: read-out: Percent Control
T14 construct: purchased Eurofins (KINOMEscan, DiscoverX)
T14 sequence (Q56UN5 whole entry): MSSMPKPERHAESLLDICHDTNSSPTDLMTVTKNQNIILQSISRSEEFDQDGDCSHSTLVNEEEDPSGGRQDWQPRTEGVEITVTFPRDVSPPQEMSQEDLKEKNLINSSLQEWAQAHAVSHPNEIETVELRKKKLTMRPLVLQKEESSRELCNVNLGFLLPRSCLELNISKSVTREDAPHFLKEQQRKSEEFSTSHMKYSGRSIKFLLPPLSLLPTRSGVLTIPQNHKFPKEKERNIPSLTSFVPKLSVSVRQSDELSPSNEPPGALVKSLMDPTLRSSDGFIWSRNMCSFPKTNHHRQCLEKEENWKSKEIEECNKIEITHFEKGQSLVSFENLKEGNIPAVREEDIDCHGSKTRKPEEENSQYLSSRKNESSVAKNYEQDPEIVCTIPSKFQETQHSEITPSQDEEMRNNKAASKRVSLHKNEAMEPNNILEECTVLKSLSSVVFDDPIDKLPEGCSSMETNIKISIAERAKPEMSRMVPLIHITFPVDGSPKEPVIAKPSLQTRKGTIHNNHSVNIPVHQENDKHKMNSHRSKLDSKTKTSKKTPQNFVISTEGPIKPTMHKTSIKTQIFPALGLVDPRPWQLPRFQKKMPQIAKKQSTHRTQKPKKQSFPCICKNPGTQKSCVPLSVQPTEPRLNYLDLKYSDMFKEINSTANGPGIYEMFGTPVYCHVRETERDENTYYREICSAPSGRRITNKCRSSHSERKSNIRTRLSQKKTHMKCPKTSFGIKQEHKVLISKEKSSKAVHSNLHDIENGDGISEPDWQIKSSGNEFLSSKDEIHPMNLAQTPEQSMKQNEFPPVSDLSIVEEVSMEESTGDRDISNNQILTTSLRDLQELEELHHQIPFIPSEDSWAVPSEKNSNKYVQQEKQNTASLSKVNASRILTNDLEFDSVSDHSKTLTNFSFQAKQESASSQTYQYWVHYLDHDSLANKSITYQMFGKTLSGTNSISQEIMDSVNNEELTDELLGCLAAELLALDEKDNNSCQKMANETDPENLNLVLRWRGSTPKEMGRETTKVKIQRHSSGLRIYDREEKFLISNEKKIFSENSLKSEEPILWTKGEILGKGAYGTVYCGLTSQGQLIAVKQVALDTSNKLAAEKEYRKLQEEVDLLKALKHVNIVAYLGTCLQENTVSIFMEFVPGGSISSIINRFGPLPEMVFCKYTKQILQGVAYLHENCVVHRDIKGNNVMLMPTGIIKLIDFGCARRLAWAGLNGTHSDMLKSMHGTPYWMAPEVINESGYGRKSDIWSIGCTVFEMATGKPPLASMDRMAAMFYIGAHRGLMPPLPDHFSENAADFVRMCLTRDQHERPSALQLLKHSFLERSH

ACVR1 = target: T15, ACVR1 (Homo sapiens, UniProt Q04771); assay: KINOMEscan; assay type: binding; conditions: read-out: Percent Control
T15 construct: purchased Eurofins DiscoverX KINOMEscan (scanMAX 468)
T15 sequence (Q04771 21-509): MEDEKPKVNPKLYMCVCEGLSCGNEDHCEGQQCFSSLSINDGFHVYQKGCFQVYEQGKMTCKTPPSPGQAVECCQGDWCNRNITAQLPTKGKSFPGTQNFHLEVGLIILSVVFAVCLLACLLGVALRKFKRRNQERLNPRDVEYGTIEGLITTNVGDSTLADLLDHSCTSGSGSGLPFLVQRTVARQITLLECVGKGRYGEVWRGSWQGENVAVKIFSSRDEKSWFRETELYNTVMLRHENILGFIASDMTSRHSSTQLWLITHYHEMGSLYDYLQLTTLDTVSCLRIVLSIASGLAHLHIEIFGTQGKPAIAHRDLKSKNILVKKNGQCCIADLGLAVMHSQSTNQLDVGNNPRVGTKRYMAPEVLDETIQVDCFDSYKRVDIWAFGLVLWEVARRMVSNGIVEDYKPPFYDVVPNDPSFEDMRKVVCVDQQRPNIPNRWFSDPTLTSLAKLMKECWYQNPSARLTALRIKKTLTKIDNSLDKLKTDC

PKN2 = target: T16, PKN2 (Homo sapiens, UniProt Q16513); assay: KINOMEscan; assay type: binding; conditions: read-out: Percent Control
T16 construct: purchased Eurofins DiscoverX KINOMEscan (scanMAX 468)

BRK = target: T17, BRK (Homo sapiens, UniProt Q13882); assay: KINOMEscan; assay type: binding; conditions: read-out: Percent Control
T17 construct: purchased Eurofins DiscoverX KINOMEscan (scanMAX 468)

ERBB4 = target: T18, ERBB4 (Homo sapiens, UniProt Q15303); assay: KINOMEscan; assay type: binding; conditions: read-out: Percent Control
T18 construct: purchased Eurofins DiscoverX KINOMEscan (scanMAX 468)

CDK9 = target: T19, CDK9 (Homo sapiens, UniProt P50750); assay: KINOMEscan; assay type: binding; conditions: read-out: Percent Control
T19 construct: purchased Eurofins DiscoverX KINOMEscan (scanMAX 468)
T19 sequence (P50750 whole entry): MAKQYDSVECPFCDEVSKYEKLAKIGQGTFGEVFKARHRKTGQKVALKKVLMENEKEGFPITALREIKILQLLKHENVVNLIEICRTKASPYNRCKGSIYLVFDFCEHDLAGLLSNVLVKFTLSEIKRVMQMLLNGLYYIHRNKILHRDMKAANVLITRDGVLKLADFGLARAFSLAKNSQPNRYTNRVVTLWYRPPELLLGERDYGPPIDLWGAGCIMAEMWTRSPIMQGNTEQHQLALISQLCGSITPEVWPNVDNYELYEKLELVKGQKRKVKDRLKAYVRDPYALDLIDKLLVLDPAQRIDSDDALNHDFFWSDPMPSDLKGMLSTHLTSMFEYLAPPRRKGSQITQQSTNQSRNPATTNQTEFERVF

FGFR1 = target: T20, FGFR1 (Homo sapiens, UniProt P11362); assay: KINOMEscan; assay type: binding; conditions: read-out: Percent Control
T20 construct: purchased Eurofins DiscoverX KINOMEscan (scanMAX 468)

SRPK1 = target: T21, SRPK1 (Homo sapiens, UniProt Q96SB4); assay: KINOMEscan; assay type: binding; conditions: read-out: Percent Control
T21 construct: purchased Eurofins DiscoverX KINOMEscan (scanMAX 468)
T21 sequence (Q96SB4 whole entry): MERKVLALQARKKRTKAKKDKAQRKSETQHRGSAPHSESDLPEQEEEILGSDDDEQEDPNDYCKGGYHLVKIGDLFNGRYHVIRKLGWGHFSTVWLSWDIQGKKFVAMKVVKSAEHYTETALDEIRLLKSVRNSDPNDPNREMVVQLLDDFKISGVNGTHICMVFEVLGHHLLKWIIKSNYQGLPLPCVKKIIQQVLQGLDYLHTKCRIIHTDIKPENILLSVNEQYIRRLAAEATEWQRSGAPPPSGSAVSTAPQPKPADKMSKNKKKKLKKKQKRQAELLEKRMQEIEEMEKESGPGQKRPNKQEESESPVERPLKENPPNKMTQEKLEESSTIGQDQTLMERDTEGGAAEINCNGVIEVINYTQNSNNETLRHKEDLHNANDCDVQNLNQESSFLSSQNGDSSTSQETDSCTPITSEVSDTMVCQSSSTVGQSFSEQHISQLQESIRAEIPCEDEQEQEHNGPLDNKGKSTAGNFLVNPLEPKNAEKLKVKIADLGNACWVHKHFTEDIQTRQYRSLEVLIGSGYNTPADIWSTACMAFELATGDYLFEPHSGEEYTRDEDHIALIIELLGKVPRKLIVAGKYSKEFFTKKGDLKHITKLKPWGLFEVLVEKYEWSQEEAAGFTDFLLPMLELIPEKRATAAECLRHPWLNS

CSNK1G1 = target: T22, CSNK1G1 (Homo sapiens, UniProt Q9HCP0); assay: KINOMEscan; assay type: binding; conditions: read-out: Percent Control
T22 construct: purchased Eurofins DiscoverX KINOMEscan (scanMAX 468)

ULK3 = target: T23, ULK3 (Homo sapiens, UniProt Q6PHR2); assay: KINOMEscan; assay type: binding; conditions: read-out: Percent Control
T23 construct: purchased Eurofins DiscoverX KINOMEscan (scanMAX 468)

EGFR(G719C) = target: T24, EGFR(G719C) (Homo sapiens, UniProt P00533, G719C); assay: KINOMEscan; assay type: binding; conditions: read-out: Percent Control
T24 construct: purchased Eurofins DiscoverX KINOMEscan (scanMAX 468)

MRCKA = target: T25, MRCKA (Homo sapiens, UniProt Q5VT25); assay: KINOMEscan; assay type: binding; conditions: read-out: Percent Control
T25 construct: purchased Eurofins DiscoverX KINOMEscan (scanMAX 468)

JNK1 = target: T26, JNK1 (Homo sapiens, UniProt P45983); assay: KINOMEscan; assay type: binding; conditions: read-out: Percent Control
T26 construct: purchased Eurofins DiscoverX KINOMEscan (scanMAX 468)

KIT(A829P) = target: T27, KIT(A829P) (Homo sapiens, UniProt P10721, A829P); assay: KINOMEscan; assay type: binding; conditions: read-out: Percent Control
T27 construct: purchased Eurofins DiscoverX KINOMEscan (scanMAX 468)
T27 sequence (P10721 26-976 A829P): as the sequence (P10721 26-976 V559D/T670I) above, with D534V, I645T, A804P counted along it

TAOK2 = target: T28, TAOK2 (Homo sapiens, UniProt Q9UL54); assay: KINOMEscan; assay type: binding; conditions: read-out: Percent Control
T28 construct: purchased Eurofins DiscoverX KINOMEscan (scanMAX 468)

BTK = target: T29, BTK (Homo sapiens, UniProt Q06187); assay: KINOMEscan; assay type: binding; conditions: read-out: Percent Control
T29 construct: purchased Eurofins DiscoverX KINOMEscan (scanMAX 468)

CSNK1D = target: T30, CSNK1D (Homo sapiens, UniProt P48730); assay: KINOMEscan; assay type: binding; conditions: read-out: Percent Control
T30 construct: purchased Eurofins DiscoverX KINOMEscan (scanMAX 468)

PRKCE = target: T31, PRKCE (Homo sapiens, UniProt Q02156); assay: KINOMEscan; assay type: binding; conditions: read-out: Percent Control
T31 construct: purchased Eurofins DiscoverX KINOMEscan (scanMAX 468)

[3] = target: T32, RSK2(Kin.Dom.1-N-terminal) (Homo sapiens, UniProt P51812); assay: KINOMEscan; assay type: binding; conditions: read-out: Percent Control
T32 construct: RSK2(Kin.Dom.1-N-terminal); purchased Eurofins DiscoverX KINOMEscan (scanMAX 468)

FGFR4 = target: T33, FGFR4 (Homo sapiens, UniProt P22455); assay: KINOMEscan; assay type: binding; conditions: read-out: Percent Control
T33 construct: purchased Eurofins DiscoverX KINOMEscan (scanMAX 468)

MET(M1250T) = target: T34, MET(M1250T) (Homo sapiens, UniProt P08581, M1250T); assay: KINOMEscan; assay type: binding; conditions: read-out: Percent Control
T34 construct: purchased Eurofins DiscoverX KINOMEscan (scanMAX 468)

AAK1 = target: T35, AAK1 (Homo sapiens, UniProt Q2M2I8); assay: KINOMEscan; assay type: binding; conditions: read-out: Percent Control
T35 construct: purchased Eurofins DiscoverX KINOMEscan (scanMAX 468)

KIT(D816H) = target: T36, KIT(D816H) (Homo sapiens, UniProt P10721, D816H); assay: KINOMEscan; assay type: binding; conditions: read-out: Percent Control
T36 construct: purchased Eurofins DiscoverX KINOMEscan (scanMAX 468)
T36 sequence (P10721 26-976 D816H): as the sequence (P10721 26-976 V559D/T670I) above, with D534V, I645T, D791H counted along it

FLT3(K663Q) = target: T37, FLT3(K663Q) (Homo sapiens, UniProt P36888, K663Q); assay: KINOMEscan; assay type: binding; conditions: read-out: Percent Control
T37 construct: purchased Eurofins DiscoverX KINOMEscan (scanMAX 468)

FLT4 = target: T38, FLT4 (Homo sapiens, UniProt P35916); assay: KINOMEscan; assay type: binding; conditions: read-out: Percent Control
T38 construct: purchased Eurofins DiscoverX KINOMEscan (scanMAX 468)

FLT1 = target: T39, FLT1 (Homo sapiens, UniProt P17948); assay: KINOMEscan; assay type: binding; conditions: read-out: Percent Control
T39 construct: purchased Eurofins DiscoverX KINOMEscan (scanMAX 468)

Structure (SMILES): Cc1ccc(-n2cc(COc3cccc4cnc(Nc5cccc(Cl)c5)nc34)nn2)c([N+](=O)[O-])c1 [DB18]
- remaining binding at 1 µM [1]: 100%
- remaining binding at 1 µM (PKMYT1): 62%
- remaining binding at 1 µM (S6K1): 94%
- remaining binding at 1 µM (PFTAIRE2): 95%
- remaining binding at 1 µM (KIT(V559D,T670I)): 96%
- IC50 (Caco2): 37 µM
- remaining binding at 1 µM (NLK): 87%
- remaining binding at 1 µM (DDR2): 100%
- remaining binding at 1 µM (PRKD1): 100%
- remaining binding at 1 µM (CHEK1): 100%
- remaining binding at 1 µM (PIK3CA(E545K)): 66%
- remaining binding at 1 µM (ADCK3): 100%
- remaining binding at 1 µM [2]: 98%
- remaining binding at 1 µM (MAP3K4): 100%
- remaining binding at 1 µM (YSK4): 34%
- remaining binding at 1 µM (ACVR1): 100%
- remaining binding at 1 µM (PKN2): 100%
- remaining binding at 1 µM (BRK): 100%
- remaining binding at 1 µM (ERBB4): 100%
- remaining binding at 1 µM (CDK9): 100%
- remaining binding at 1 µM (FGFR1): 100%
- remaining binding at 1 µM (SRPK1): 100%
- remaining binding at 1 µM (CSNK1G1): 100%
- remaining binding at 1 µM (ULK3): 100%
- remaining binding at 1 µM (EGFR(G719C)): 100%
- remaining binding at 1 µM (MRCKA): 100%
- remaining binding at 1 µM (JNK1): 93%
- remaining binding at 1 µM (KIT(A829P)): 100%
- remaining binding at 1 µM (TAOK2): 98%
- remaining binding at 1 µM (BTK): 100%
- remaining binding at 1 µM (CSNK1D): 100%
- remaining binding at 1 µM (PRKCE): 100%
- remaining binding at 1 µM [3]: 100%
- remaining binding at 1 µM (FGFR4): 100%
- remaining binding at 1 µM (MET(M1250T)): 88%
- remaining binding at 1 µM (AAK1): 100%
- remaining binding at 1 µM (KIT(D816H)): 100%
- remaining binding at 1 µM (FLT3(K663Q)): 69%
- remaining binding at 1 µM (FLT4): 100%
- remaining binding at 1 µM (FLT1): 100%
